Measured values published in patent US11081236B2, “Diagnostic and therapeutic methods for the treatment of breast cancer” (GENENTECH, INC., priority 2018, dated 2021).

Tested on: panel of 14 ER+/HER2− breast cancer cell lines
Test: 8-day in vitro viability assay, GR (Growth Rate) method
Type: cell-based
Conditions: 300 nM
Protocol: The relationship between ER pathway activity and the anti-proliferative effect of the ER antagonist fulvestrant was explored in a panel of 14 ER+/HER2− breast cancer cell lines. RNA-sequencing data was leveraged to determine the E2-induced score, determined by expression of a set of E2-induced genes (as described above), of a series of ER+/HER2− breast cancer cell lines grown under standard culture conditions, in the presence of estrogen. The effect of ER inhibition by 300 nM fulvestrant on cellular proliferation was determined in an 8-day in vitro viability assay using the GR (Growth Rate) method described by Hafner et al. (Nat Methods 13:6, 2016). The E2-induced score was then plotted against the effect of fulvestrant on cellular growth rate.

C[C@]12CC[C@@H]3c4ccc(O)cc4C[C@@H](CCCCCCCCC[S+]([O-])CCCC(F)(F)C(F)(F)F)[C@H]3[C@@H]1CC[C@@H]2O (some centres unmarked) [Fulvestrant, fulvestrant]
impact on growth rate (cell lines exhibiting higher E2-induced scores): considerably greater impact
impact on growth rate (cell lines with E2-induced scores in the lowest 25th percentile (ZR-75-1, MDA-MB-415, MDA-MB-175-VII, KPL-1)): little impact
